Test results as given in PubChem BioAssay (NCI).
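Growth conditions: 96-well plates. Treatment: test compound, 48 hours, 5 concentrations. Analysis: linear interpolation between bracketing concentrations; unreached endpoints set to highest concentration. The concentration for full growth arrest is given as TGI.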

Key:
Test in all cases: NCI tumour cell line growth inhibition, 48 h
SNB-75 CNS = system: SNB-75 CNS
SW-620 colon = system: SW-620 colon
NCI-H460 lung = system: NCI-H460 lung
OVCAR-3 ovarian = system: OVCAR-3 ovarian
786-0 renal = system: 786-0 renal
EKVX NSCLC = system: EKVX NSCLC
SN12C renal = system: SN12C renal
HOP-62 NSCLC = system: HOP-62 NSCLC
MDA-N = system: MDA-N
HOP-92 NSCLC = system: HOP-92 NSCLC
NCI-H522 lung = system: NCI-H522 lung
BT-549 breast = system: BT-549 breast
CAKI-1 renal = system: CAKI-1 renal
OVCAR-8 ovarian = system: OVCAR-8 ovarian
NCI/ADR-RES ovarian = system: NCI/ADR-RES ovarian
K-562 leukemia = system: K-562 leukemia
A549 NSCLC = system: A549 NSCLC
MCF7 breast = system: MCF7 breast
M14 melanoma = system: M14 melanoma
UACC-257 melanoma = system: UACC-257 melanoma
SF-295 CNS = system: SF-295 CNS
UO-31 renal = system: UO-31 renal
SR leukemia = system: SR leukemia
HL-60(TB) leukemia = system: HL-60(TB) leukemia
HCC-2998 colon = system: HCC-2998 colon
SF-539 CNS = system: SF-539 CNS
MALME-3M melanoma = system: MALME-3M melanoma
HS 578T breast = system: HS 578T breast
T-47D breast = system: T-47D breast
HCT-116 colon = system: HCT-116 colon
RXF 393 renal = system: RXF 393 renal
MDA-MB-231 breast = system: MDA-MB-231 breast
SNB-19 CNS = system: SNB-19 CNS
ACHN renal = system: ACHN renal
NCI-H23 lung = system: NCI-H23 lung
NCI-H226 lung = system: NCI-H226 lung
COLO 205 colon = system: COLO 205 colon
A498 renal = system: A498 renal
DU-145 prostate = system: DU-145 prostate
PC-3 prostate = system: PC-3 prostate
OVCAR-4 ovarian = system: OVCAR-4 ovarian
OVCAR-5 ovarian = system: OVCAR-5 ovarian
SK-MEL-5 melanoma = system: SK-MEL-5 melanoma
CCRF-CEM leukemia = system: CCRF-CEM leukemia
MOLT-4 leukemia = system: MOLT-4 leukemia
U251 CNS = system: U251 CNS
HCT-15 colon = system: HCT-15 colon
SK-MEL-2 melanoma = system: SK-MEL-2 melanoma
KM12 colon = system: KM12 colon
IGROV1 ovarian = system: IGROV1 ovarian
LOX IMVI melanoma = system: LOX IMVI melanoma
TK-10 renal = system: TK-10 renal
SF-268 CNS = system: SF-268 CNS
HT29 colon = system: HT29 colon
MDA-MB-435 = system: MDA-MB-435
SK-MEL-28 melanoma = system: SK-MEL-28 melanoma
UACC-62 melanoma = system: UACC-62 melanoma
SK-OV-3 ovarian = system: SK-OV-3 ovarian
RPMI-8226 leukemia = system: RPMI-8226 leukemia

COc1ccccc1Cn1nc(OC)c2cc([N+](=O)[O-])ccc21
TGI (SNB-75 CNS): 18.7 µM
TGI (SW-620 colon): > 100 µM
TGI (NCI-H460 lung): > 100 µM
TGI (OVCAR-3 ovarian): > 100 µM
TGI (786-0 renal): > 84.7 µM
TGI (EKVX NSCLC): > 73.6 µM
TGI (SN12C renal): > 100 µM
TGI (HOP-62 NSCLC): 20.3 µM
TGI (MDA-N): > 100 µM
TGI (HOP-92 NSCLC): 33.8 µM
TGI (NCI-H522 lung): > 81.3 µM
TGI (BT-549 breast): 46.2 µM
TGI (CAKI-1 renal): > 53.6 µM
TGI (OVCAR-8 ovarian): > 100 µM
TGI (NCI/ADR-RES ovarian): > 100 µM
TGI (K-562 leukemia): > 100 µM
TGI (A549 NSCLC): > 100 µM
TGI (MCF7 breast): > 100 µM
TGI (M14 melanoma): > 100 µM
TGI (UACC-257 melanoma): > 100 µM
TGI (SF-295 CNS): 20 µM
TGI (UO-31 renal): > 79.6 µM
TGI (SR leukemia): > 100 µM
TGI (HL-60(TB) leukemia): > 100 µM
TGI (HCC-2998 colon): > 100 µM
TGI (SF-539 CNS): > 53.5 µM
TGI (MALME-3M melanoma): > 100 µM
TGI (HS 578T breast): > 84.7 µM
TGI (T-47D breast): > 100 µM
TGI (HCT-116 colon): > 100 µM
TGI (RXF 393 renal): 11.2 µM
TGI (MDA-MB-231 breast): > 67.7 µM
TGI (SNB-19 CNS): 41.5 µM
TGI (ACHN renal): > 100 µM
TGI (NCI-H23 lung): > 89.2 µM
TGI (NCI-H226 lung): > 100 µM
TGI (COLO 205 colon): > 100 µM
TGI (A498 renal): 60.3 µM
TGI (DU-145 prostate): > 100 µM
TGI (PC-3 prostate): > 100 µM
TGI (OVCAR-4 ovarian): > 100 µM
TGI (OVCAR-5 ovarian): > 100 µM
TGI (SK-MEL-5 melanoma): > 100 µM
TGI (CCRF-CEM leukemia): > 100 µM
TGI (MOLT-4 leukemia): > 100 µM
TGI (U251 CNS): 29 µM
TGI (HCT-15 colon): > 100 µM
TGI (SK-MEL-2 melanoma): > 57.5 µM
TGI (KM12 colon): > 100 µM
TGI (IGROV1 ovarian): > 100 µM
TGI (LOX IMVI melanoma): > 100 µM
TGI (TK-10 renal): 60.8 µM
TGI (SF-268 CNS): 36.9 µM
TGI (HT29 colon): > 100 µM
TGI (MDA-MB-435): > 100 µM
TGI (SK-MEL-28 melanoma): > 100 µM

CC(C)NC(=O)OCCN=C1c2ccccc2CCc2ccccc21
TGI (SNB-75 CNS): > 100 µM
TGI (SW-620 colon): > 100 µM
TGI (NCI-H460 lung): 76.9 µM
TGI (OVCAR-3 ovarian): 58.5 µM
TGI (786-0 renal): > 100 µM
TGI (EKVX NSCLC): 81.3 µM
TGI (UACC-62 melanoma): 40.8 µM
TGI (SN12C renal): 46.2 µM
TGI (HOP-62 NSCLC): 70.1 µM
TGI (MDA-N): 39.8 µM
TGI (HOP-92 NSCLC): 55 µM
TGI (SK-OV-3 ovarian): 85.4 µM
TGI (BT-549 breast): 28.5 µM
TGI (CAKI-1 renal): > 100 µM
TGI (OVCAR-8 ovarian): > 100 µM
TGI (NCI/ADR-RES ovarian): 99.5 µM
TGI (K-562 leukemia): 59 µM
TGI (A549 NSCLC): > 100 µM
TGI (MCF7 breast): 57.5 µM
TGI (M14 melanoma): 39.7 µM
TGI (UACC-257 melanoma): 46 µM
TGI (SF-295 CNS): 28.7 µM
TGI (UO-31 renal): 58.7 µM
TGI (SR leukemia): 53 µM
TGI (HL-60(TB) leukemia): 45.7 µM
TGI (HCC-2998 colon): 39 µM
TGI (SF-539 CNS): 41.5 µM
TGI (MALME-3M melanoma): 36.3 µM
TGI (HS 578T breast): 78.3 µM
TGI (T-47D breast): 66.1 µM
TGI (HCT-116 colon): 46.6 µM
TGI (RXF 393 renal): > 100 µM
TGI (MDA-MB-231 breast): 66.7 µM
TGI (SNB-19 CNS): 66.8 µM
TGI (ACHN renal): 68.4 µM
TGI (NCI-H23 lung): > 100 µM
TGI (NCI-H226 lung): 60.5 µM
TGI (COLO 205 colon): 35.7 µM
TGI (DU-145 prostate): 88.9 µM
TGI (PC-3 prostate): 62.4 µM
TGI (OVCAR-4 ovarian): 43.1 µM
TGI (OVCAR-5 ovarian): 82.9 µM
TGI (SK-MEL-5 melanoma): 27.4 µM
TGI (CCRF-CEM leukemia): 46.5 µM
TGI (MOLT-4 leukemia): 39.7 µM
TGI (U251 CNS): 50.6 µM
TGI (HCT-15 colon): 77.8 µM
TGI (SK-MEL-2 melanoma): 34.6 µM
TGI (KM12 colon): > 100 µM
TGI (IGROV1 ovarian): > 100 µM
TGI (LOX IMVI melanoma): 72.7 µM
TGI (TK-10 renal): 92.7 µM
TGI (SF-268 CNS): 80.7 µM
TGI (HT29 colon): 47.6 µM
TGI (MDA-MB-435): 55.1 µM
TGI (SK-MEL-28 melanoma): 40.3 µM
TGI (RPMI-8226 leukemia): 43.2 µM

S=C(S)N1CCN(c2ccc(Cl)c(Cl)c2)CC1
TGI (SNB-75 CNS): > 100 µM
TGI (SW-620 colon): 52.9 µM
TGI (OVCAR-3 ovarian): 50 µM
TGI (786-0 renal): > 100 µM
TGI (EKVX NSCLC): > 100 µM
TGI (SN12C renal): > 100 µM
TGI (HOP-62 NSCLC): > 100 µM
TGI (MDA-N): 35 µM
TGI (HOP-92 NSCLC): 75.3 µM
TGI (NCI-H522 lung): 50.1 µM
TGI (BT-549 breast): > 100 µM
TGI (CAKI-1 renal): 59.8 µM
TGI (OVCAR-8 ovarian): > 100 µM
TGI (NCI/ADR-RES ovarian): > 100 µM
TGI (K-562 leukemia): 55.8 µM
TGI (A549 NSCLC): > 100 µM
TGI (MCF7 breast): 70.9 µM
TGI (M14 melanoma): 40.7 µM
TGI (SF-295 CNS): > 100 µM
TGI (HL-60(TB) leukemia): 44.3 µM
TGI (HCC-2998 colon): 36.6 µM
TGI (SF-539 CNS): 59.4 µM
TGI (MALME-3M melanoma): 44.2 µM
TGI (HS 578T breast): 97.2 µM
TGI (T-47D breast): 42.6 µM
TGI (HCT-116 colon): 29.5 µM
TGI (RXF 393 renal): > 100 µM
TGI (MDA-MB-231 breast): 40.7 µM
TGI (SNB-19 CNS): > 100 µM
TGI (ACHN renal): > 100 µM
TGI (COLO 205 colon): 33.6 µM
TGI (A498 renal): 44.2 µM
TGI (DU-145 prostate): 57 µM
TGI (PC-3 prostate): 46.9 µM
TGI (OVCAR-5 ovarian): > 100 µM
TGI (SK-MEL-5 melanoma): 30.5 µM
TGI (CCRF-CEM leukemia): > 100 µM
TGI (U251 CNS): 90.7 µM
TGI (HCT-15 colon): > 100 µM
TGI (SK-MEL-2 melanoma): 34.6 µM
TGI (KM12 colon): 34.5 µM
TGI (IGROV1 ovarian): 84.6 µM
TGI (LOX IMVI melanoma): 31.6 µM
TGI (TK-10 renal): > 100 µM
TGI (SF-268 CNS): > 100 µM
TGI (HT29 colon): 49.3 µM
TGI (MDA-MB-435): 37.4 µM
TGI (SK-MEL-28 melanoma): 62.7 µM
TGI (RPMI-8226 leukemia): 45.8 µM

CC(=O)N[C@H]1CCCC[C@@H]1OC(C)=O
TGI (SNB-75 CNS): > 100 µM
TGI (SW-620 colon): > 100 µM
TGI (NCI-H460 lung): > 100 µM
TGI (OVCAR-3 ovarian): > 100 µM
TGI (786-0 renal): > 100 µM
TGI (EKVX NSCLC): > 100 µM
TGI (UACC-62 melanoma): > 100 µM
TGI (SN12C renal): > 100 µM
TGI (HOP-62 NSCLC): > 100 µM
TGI (MDA-N): > 100 µM
TGI (HOP-92 NSCLC): > 100 µM
TGI (SK-OV-3 ovarian): > 100 µM
TGI (NCI-H522 lung): > 100 µM
TGI (BT-549 breast): > 100 µM
TGI (CAKI-1 renal): > 100 µM
TGI (OVCAR-8 ovarian): > 100 µM
TGI (NCI/ADR-RES ovarian): > 100 µM
TGI (K-562 leukemia): > 100 µM
TGI (MCF7 breast): > 100 µM
TGI (UACC-257 melanoma): > 100 µM
TGI (SF-295 CNS): > 100 µM
TGI (HL-60(TB) leukemia): > 100 µM
TGI (HCC-2998 colon): > 100 µM
TGI (MALME-3M melanoma): > 100 µM
TGI (HS 578T breast): > 100 µM
TGI (T-47D breast): > 100 µM
TGI (HCT-116 colon): > 100 µM
TGI (RXF 393 renal): > 100 µM
TGI (MDA-MB-231 breast): > 100 µM
TGI (ACHN renal): > 100 µM
TGI (NCI-H23 lung): > 100 µM
TGI (NCI-H226 lung): > 100 µM
TGI (COLO 205 colon): > 100 µM
TGI (A498 renal): > 100 µM
TGI (DU-145 prostate): > 100 µM
TGI (PC-3 prostate): > 100 µM
TGI (OVCAR-4 ovarian): > 100 µM
TGI (OVCAR-5 ovarian): > 100 µM
TGI (SK-MEL-5 melanoma): > 100 µM
TGI (MOLT-4 leukemia): > 100 µM
TGI (U251 CNS): > 100 µM
TGI (HCT-15 colon): > 100 µM
TGI (SK-MEL-2 melanoma): > 100 µM
TGI (KM12 colon): > 100 µM
TGI (IGROV1 ovarian): > 100 µM
TGI (LOX IMVI melanoma): > 100 µM
TGI (TK-10 renal): > 100 µM
TGI (HT29 colon): > 100 µM
TGI (MDA-MB-435): > 100 µM
TGI (SK-MEL-28 melanoma): > 100 µM
TGI (RPMI-8226 leukemia): > 100 µM
